Experiments:
[1] = biological target: T1, recombinant feline FP receptor (Felis catus, UniProt A0ABI7XJ69); test: Radioligand binding competition vs 3H-17-phenyl PGF2α, recombinant feline FP receptor; parameters: species or system cat
Protocol: Plasma membrane preparations of HEK 293 cells stably transfected with the human or feline FP receptor were obtained as follows. Cells washed with TME buffer were scraped from the bottom of the flasks and homogenized for 30 sec using a Brinkman PT 10/35 polytron. TME buffer was added as necessary to achieve a 40 ml volume in the centrifuge tubes. […] The cell homogenate was centrifuged at 19,000 rpm for 20 min at 4-6° C. using a Beckman Ti-60 rotor. The pellet was then resuspended in TME buffer to provide a final protein concentration of 1 mg/ml, as determined by Biorad assay. […] Incubations were for 60 min at 25° C. and were terminated by the addition of 4 ml of ice-cold 50 mM TRIS-HCl followed by rapid filtration through Whatman GF/B filters and three additional 4 ml washes in a cell harvester (Brandel).

human FP receptor [2] = biological target: T2, human FP receptor (Homo sapiens, UniProt P43088); test: Radioligand binding competition vs 3H-17-phenyl PGF2α, recombinant human FP receptor; parameters: expressed in transfected cells; conditions: for % specific binding mean χ ± SEM: vs 5nM 3H-17-phenyl PGF2α, n = 3
T2 sequence (P43088 whole entry): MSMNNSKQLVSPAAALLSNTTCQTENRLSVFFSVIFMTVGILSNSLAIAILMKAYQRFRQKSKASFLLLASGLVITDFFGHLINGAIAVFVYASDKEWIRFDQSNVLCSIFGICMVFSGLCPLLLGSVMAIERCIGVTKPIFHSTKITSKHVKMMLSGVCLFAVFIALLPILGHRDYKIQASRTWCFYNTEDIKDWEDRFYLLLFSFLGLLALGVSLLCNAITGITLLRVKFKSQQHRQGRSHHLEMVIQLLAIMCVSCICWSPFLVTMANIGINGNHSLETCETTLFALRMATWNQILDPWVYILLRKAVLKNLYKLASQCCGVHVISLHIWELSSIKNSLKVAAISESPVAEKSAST
Protocol: Plasma membrane preparations of HEK 293 cells stably transfected with the human or feline FP receptor were obtained as follows. Cells washed with TME buffer were scraped from the bottom of the flasks and homogenized for 30 sec using a Brinkman PT 10/35 polytron. TME buffer was added as necessary to achieve a 40 ml volume in the centrifuge tubes. TME is comprised of 100 mM TRIS base, 20 mM Mg Cl2, 2 m EDTA; physiological pH is achieved by adding 10 N HCl. The cell homogenate was centrifuged at 19,000 rpm for 20 min at 4-6° C. using a Beckman Ti-60 rotor. The pellet was then resuspended in TME buffer to provide a final protein concentration of 1 mg/ml, as determined by Biorad assay. Radioligand binding assays were performed in a 200 μl volume.
Incubations were for 60 min at 25° C. and were terminated by the addition of 4 ml of ice-cold 50 mM TRIS-HCl followed by rapid filtration through Whatman GF/B filters and three additional 4 ml washes in a cell harvester (Brandel).

human FP receptor [3] = biological target: T2, human FP receptor; test: Total inositol phosphate accumulation, HEK-293 cells with recombinant human FP receptor; type: cell-based; parameters: expressed in transfected cells; conditions: for % maximal total inositol phosphate accumulation mean χ ± SEM: reference 17-phenyl PGF2α 10^−6 M
Protocol: HEK-293 cells were grown in DMEM with 10% fetal bovine serum (FBS), 250 μg ml^−1 G418 (Life Technologies) and 200 μg ml^−1 gentamicin or penicillin/streptomycin. […] For transfection, the cells were grown to 50-60% confluency on 10 cm plates. The plasmid pCEP4 incorporating cDNA inserts for the human FP receptor (20 μg) was added to 500 μl of 250 mM CaCl2. HEPES buffered saline×2 (2×HBSS, 280 mM NaCl, 20 mM HEPES acid, 1.5 mM Na2 HPO4, pH 7.05-7.12) was then added dropwise to a […], with continuous vortexing at room temperature. After 30 min, 9 ml DMEM were added to the mixture. The DNA/DMEM/calcium phosphate mixture was then added to the cells, which had been previously rinsed with 10 ml phosphate buffered saline (PBS). The cells were then incubated for 5 h. at 37° C. in humidified 95% air/5% CO2. The calcium phosphate solution was then removed and the cells were treated with 10% glycerol in DMEM for 2 min. The glycerol solution was then replaced by DMEM with 10% fetal bovine serum (FBS). The cells were incubated overnight and the medium was replaced by DMEM/10% FBS containing 250 μg ml^−1 G418 and penicillin/streptomycin. The following day hygromycin B was added to a final concentration of 200 μg ml^−1.
Receptor-mediated phosphoinositide (PI) hydrolysis was determined by measuring the accumulation of total inositol phosphates (IP) in cells preincubated with ^3H-myoinositol. Stable cell lines of HEK 293 cells expressing human or cat FP receptors were plated in 10 cm dishes (10^6 cells per dish in DMEM with 10% FBS). The following day, the cells were incubated with 18 μCi myo-[2 ^3H] inositol (Amersham; […]) in 6 ml of DMEM with 10% FBS for 24 hours at 37° C. The cells were then rinsed twice with phosphate buffered saline (PBS), incubated for 5 min with 1 ml of trypsin-EDTA, and suspended in 10 ml DMEM containing 25 mM HEPES buffer. Cells were pelleted at 1000 rpm and resuspended in DMEM/25 mM HEPES containing 10 mM LiCl for 10 minutes. Aliquots of 200 μl cell suspension were incubated with 50 μl drug for 30 minutes at 37° C. (duplicate determination), and agonist stimulation was terminated with a 750 μl mixture of chloroform:methanol:4N HCl (100:200:2), followed by addition of 250 μl of chloroform and 0.5 N HCl for extraction of inositol phosphates. A 750 μl volume of the aqueous layer was loaded on columns packed with 0.5 ml of Dowex AG 1-X8 anion-exchange resin (formate form, 100-200 mesh; BioRad) to separate radiolabeled components. The elution procedure consisted of three 3 ml washes with 5 mM inositol, then two elutions with 750 μl of 1.3 M ammonium formate with 0.1 M formic acid. The eluate was mixed with 10 ml Aquasol scintillation fluid (Packard Instrument Co.) and total [^3H] inositol phosphates was determined by a liquid scintillation counter.

[4] = biological target: T1, recombinant feline FP receptor; test: Total inositol phosphate accumulation, HEK-293 cells with recombinant feline FP receptor; type: cell-based, cat; conditions: read-out: E.C.50, total inositol phosphate accumulation
Protocol: Ten days after transfection, hygromycin B resistant clones were individually selected and transferred to a separate well on a 24 well plate. At confluence each clone was transferred to one well of a 6 well plate, and then expanded in a 10 cm dish. Cells were maintained under continuous hygromycin selection until use. The stable cat FP receptor transfectants were similarly prepared using […]. Again cells were grown to 50-60% confluency on 10 cm plates and the plasmid pCEP4, incorporating cDNA inserts for the feline FP receptor, was transfected using lipofectin. Hygromycin B selection was started 48 hr post-transfection. Eight days after transfection, hygromycin B resistant clones were selected and transferred to 24 well plates. Ca^2+ signaling studies on recombinant cat and human FP receptors were performed in an identical manner to that described for the CRL 1497 cell studies.
Receptor-mediated phosphoinositide (PI) hydrolysis was determined by measuring the accumulation of total inositol phosphates (IP) in cells preincubated with ^3H-myoinositol. Stable cell lines of HEK 293 cells expressing human or cat FP receptors were plated in 10 cm dishes (10^6 cells per dish in DMEM with 10% FBS). […] The eluate was mixed with 10 ml Aquasol scintillation fluid (Packard Instrument Co.) and total [^3H] inositol phosphates was determined by a liquid scintillation counter.

T1 sequence (A0ABI7XJ69 entry or part of it): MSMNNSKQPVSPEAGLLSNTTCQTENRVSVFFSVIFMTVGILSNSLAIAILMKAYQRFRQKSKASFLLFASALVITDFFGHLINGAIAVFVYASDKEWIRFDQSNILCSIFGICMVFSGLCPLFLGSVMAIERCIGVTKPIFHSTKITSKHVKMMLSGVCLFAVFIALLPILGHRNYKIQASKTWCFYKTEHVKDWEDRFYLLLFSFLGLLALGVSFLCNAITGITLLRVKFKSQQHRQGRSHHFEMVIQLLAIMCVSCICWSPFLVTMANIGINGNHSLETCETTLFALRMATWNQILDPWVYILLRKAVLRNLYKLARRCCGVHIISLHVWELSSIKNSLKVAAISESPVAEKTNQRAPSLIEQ

## O=C(O)CCC/C=C\C[C@@H]1[C@@H](/C=C/[C@@H](O)CCc2ccccc2)[C@H](O)C[C@@H]1O [17-phenyl PGF2α, 17-phenyl prostaglandin F2α, reference compound]
[1]; radioligand binding
  affinity for the feline receptor: high affinity
[1]; vs 5 nM 3H-17-phenyl PGF2α, feline FP receptor, read-out: inhibitory concentration50 (I.C.50), radioligand binding
  IC50: 43.5 nM
Human FP receptor [2]; 10^−5 M
  % specific binding mean χ ± SEM: 0 ± 0%
Human FP receptor [2]; 10^−6 M
  % specific binding mean χ ± SEM: 1.7 ± 1.7%
Human FP receptor [2]; 10^−7 M
  % specific binding mean χ ± SEM: 5.3 ± 1.5%
Human FP receptor [2]; 10^−8 M
  % specific binding mean χ ± SEM: 24.0 ± 1.2%
Human FP receptor [2]; 10^−9 M
  % specific binding mean χ ± SEM: 65.0 ± 1.0%
Human FP receptor [2]; 10^−10 M
  % specific binding mean χ ± SEM: 98 ± 1.1%
Human FP receptor [2]; vs 5 nM 3H-17-phenyl PGF2α, human FP receptor, read-out: I.C.50, radioligand binding
  IC50: 2.3 nM
Human FP receptor [3]; 10^−6 M
  % maximal total inositol phosphate accumulation mean χ ± SEM: 100 ± 1.3%
Human FP receptor [3]; 10^−7 M
  % maximal total inositol phosphate accumulation mean χ ± SEM: 92.3 ± 0.9%
Human FP receptor [3]; 10^−8 M
  % maximal total inositol phosphate accumulation mean χ ± SEM: 57.8 ± 2.0%
Human FP receptor [3]; 10^−9 M
  % maximal total inositol phosphate accumulation mean χ ± SEM: 14.7 ± 3.3%
Human FP receptor [3]; HEK-293 cells, recombinant human FP receptor, read-out: E.C.50, total inositol phosphate accumulation
  EC50: 8 nM
[4]
  EC50: 9 nM

Reference: patent publication US6395787B1, “Ocular hypotensive lipids” (Allergan Sales, Inc., priority 2000, dated 2002)
